Test [1] can be described thus: antiviral protection against BTV-induced cell death – arbovirus, BSR cells, confirmation (AID 1250).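 Further: protection from viral cytopathic effect measured as cell viability by ATP luminescence.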 Type of test: functional.
Test [2] deals with BJ. Briefly: BJ-TERT fibroblast viability loss – cell-based, RAS-independent, luminescence, dose response (AID 1933). Conditions: Homo sapiens. Type of test: functional.
In test [3] the test system is BJ. Briefly: cells. To be noted: Homo sapiens. The test is classed as functional, cell-based.
The next test addresses Ion channel NompC (Danio rerio, UniProt Q7T1G6). Briefly: Dose response cell-based high-throughput screening assay for agonists of the transient receptor potential channel N1 (TRPN1). [Related pubchem assays (depositor defined):AID1424, AID1448]. The test is classed as functional.
The target of a further test is T1, Mucolipin-3 (Homo sapiens, UniProt Q8TDD5).
T1 sequence (Q8TDD5 whole entry): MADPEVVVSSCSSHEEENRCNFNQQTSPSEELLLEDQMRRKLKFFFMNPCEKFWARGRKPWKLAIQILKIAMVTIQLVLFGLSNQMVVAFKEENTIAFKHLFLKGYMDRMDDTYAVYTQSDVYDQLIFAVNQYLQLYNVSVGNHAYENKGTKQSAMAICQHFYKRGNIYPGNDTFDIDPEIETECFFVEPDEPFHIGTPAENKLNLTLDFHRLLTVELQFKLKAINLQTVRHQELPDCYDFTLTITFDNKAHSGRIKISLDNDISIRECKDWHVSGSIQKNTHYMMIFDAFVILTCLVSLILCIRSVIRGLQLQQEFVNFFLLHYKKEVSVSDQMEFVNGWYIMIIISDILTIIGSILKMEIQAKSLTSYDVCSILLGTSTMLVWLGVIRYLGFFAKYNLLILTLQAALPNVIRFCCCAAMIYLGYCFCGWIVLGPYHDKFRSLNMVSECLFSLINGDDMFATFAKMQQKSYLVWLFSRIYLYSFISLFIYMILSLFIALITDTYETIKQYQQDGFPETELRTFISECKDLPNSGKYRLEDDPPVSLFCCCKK
The test can be described thus: Fluorescence counterscreen assay for […] agonists: dose response cell-based high-throughput screening assay to identify agonists of the transient receptor potential channel ML3 (TRPML3). [Related pubchem assays: 1424, 1448 ]. Type of test: functional.

The target in test [4] is T2, Sphingosine 1-phosphate receptor 4 (Homo sapiens, UniProt O95977).
T2 sequence (O95977 whole entry): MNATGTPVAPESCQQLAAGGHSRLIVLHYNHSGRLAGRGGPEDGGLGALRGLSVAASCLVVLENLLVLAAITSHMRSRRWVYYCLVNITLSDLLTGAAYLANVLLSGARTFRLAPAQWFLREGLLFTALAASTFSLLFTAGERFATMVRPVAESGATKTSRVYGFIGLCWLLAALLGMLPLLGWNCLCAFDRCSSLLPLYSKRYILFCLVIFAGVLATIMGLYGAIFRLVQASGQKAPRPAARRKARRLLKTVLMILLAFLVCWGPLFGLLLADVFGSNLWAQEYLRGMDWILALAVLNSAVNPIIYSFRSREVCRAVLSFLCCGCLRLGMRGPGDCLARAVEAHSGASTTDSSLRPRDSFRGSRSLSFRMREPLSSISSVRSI
The test can be described thus: Late stage fluorescence dose response cell-based screening assay for antagonists of the Sphingosine 1-Phosphate Receptor 4 (S1P4). [Related pubchem assays: 1524 (Confirmation screen (S1P4 antagonists).), 1510 (Primary screen (S1P4 antagonists).), 1853 (Summary AID (S1P4 antagonists).), 1692 (Dose response screen (S1P4 antagonists).)]. Type of test: functional.

Test [5] concerns the target T2, Sphingosine 1-phosphate receptor 4. Briefly: Fluorescence dose response cell-based high throughput screening assay for antagonists of the Sphingosine 1-Phosphate Receptor 4 (S1P4). [Related pubchem assays: 1524 (Confirmation in triplicates.), 1510 (Primary screen.)]. The test is classed as functional.
In test [6] the test system is BJ. Briefly: BJ-TERT-LT-ST fibroblast viability loss – cell-based, RAS-independent, luminescence, dose response (AID 1935).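 Further: BJ fibroblasts immortalized with TERT plus LT and ST oncogenes.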 Type of test: functional. Conditions: Homo sapiens.
A short description of test [7]: DRD fibroblast viability loss – cell-based, non-viral oncogenic, luminescence, dose response (AID 1934). Type of test: functional. To be noted: Homo sapiens.
In test [8] the target is Sphingosine 1-phosphate receptor 1 (Homo sapiens, UniProt P21453). Type of test: functional.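 Further: Tango beta-arrestin reporter U2OS cells stimulated with S1P near its EC80; inhibitor potency meaning antagonism of receptor activation by the natural agonist.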
The nature of test [9]: HEK-293T viability loss after treatment – luminescence, T-cell screen hits, cytotoxicity control for TCR NF-kB inhibitor project, dose response (AID 489026).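 Further: cells exposed to compound about 14 hours before the viability readout.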 Type of test: functional, cell-based.
For test [10], the system named is BJ. The test can be described thus: growth inhibition of engineered Ras-driven BJ cells – cell-based, alamar blue fluorescence, cherrypicked samples, dose response (AID 2631).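 Further: confirmatory dose-response assay in RAS-dependent BJ fibroblasts engineered with TERT, LT and ST, with cytotoxicity read by fluorescence.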 The test is classed as functional. To be noted: Homo sapiens.
Another test concerns INS1. Briefly: INS-1E survival protection against cytokine death – cell-based, luminescence, retest, dose response (AID 449756).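 Further: cell death triggered by IL-1 beta plus TNF-alpha plus IFN-gamma mixture; protective hits raise ATP signal compared with cytokine alone wells.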 Conditions: Rattus norvegicus. The test is classed as functional.
In another test the target is Cytochrome P450 2D6 (Homo sapiens, UniProt P10635).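 Further: CYP2D6 member of a cytochrome P450 panel assay.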
The nature of test [11]: Luminescence-based counterscreen assay for KLF5 inhibitors: dose response cell-based high throughput screening assay to identify cytotoxic compounds using the IEC-6 intestinal epithelial cell line. [Related pubchem assays: 1700 (Primary screen.), 1834 (Confirmation screen.), 1858 (Summary AID.), 1905 (Counterscreen.)]. Type of test: functional.
Test [12] can be described thus: A549 cell cytotoxicity, dose response, cytotoxicity control, plate reader, cherry-pick, antagonist series (AID 743412). Type of test: functional, cell-based.
Test [13] is described as follows: toxicity toward HepG2 liver cells – cell-based, plate reader, cherry-pick, antagonist series, cytotoxicity control, dose response (AID 743416). The test is classed as functional.
A short description of test [14]: blockers of bursicon-stimulated LGR2 cAMP reporter – cell-based, HEK293, CRE-luciferase reporter, cherry pick, set 2, dose response (AID 743343).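 Further: transfected cells were stimulated with diluted bursicon conditioned medium after compound addition.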 Type of test: functional.
A short description of test [15]: blockade of melanocortin 4 receptor signaling – cell-based, plate reader, cherry pick, counter-screen for LGR2 antagonist project, dose response (AID 743444).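 Further: transfected HEK 293 cells stimulated with alpha-MSH peptide; potency of inhibitors of the alpha-MSH evoked signal.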 The test is classed as functional.
A short description of test [16]: viability loss in HEK293 cells – cell-based, plate reader, cherry-picked samples, cytotoxicity control, dose response (AID 743446). The test is classed as functional.
Test [17] deals with T3, RNA-binding protein pos-1 (Caenorhabditis elegans, UniProt G5EF15).
T3 sequence (G5EF15 whole entry): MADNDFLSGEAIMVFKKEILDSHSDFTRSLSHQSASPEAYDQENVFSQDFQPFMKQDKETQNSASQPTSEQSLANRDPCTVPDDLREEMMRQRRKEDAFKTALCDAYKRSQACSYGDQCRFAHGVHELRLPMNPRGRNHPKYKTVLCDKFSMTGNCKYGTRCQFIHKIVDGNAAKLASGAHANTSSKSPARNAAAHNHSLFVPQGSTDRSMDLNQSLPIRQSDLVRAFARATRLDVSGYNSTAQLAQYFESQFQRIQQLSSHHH
The test can be described thus: disruptors of C. elegans POS-1 RNA interaction – biochemical, fluorescence polarization, dose response (AID 1964).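 Further: purified POS-1 fused to maltose binding protein made in E. coli; potency of compounds blocking POS-1 binding to fluorescent RNA.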

Test [18] deals with Luciferin 4-monooxygenase (Photinus pyralis, UniProt P08659). The test can be described thus: Counter Screen for Luciferase-based Assay Positives. [Related pubchem assays: 620, 618, 411 ].
Test [19] concerns the target T4, Zinc finger protein mex-5 (Caenorhabditis elegans, UniProt Q9XUB2).
T4 sequence (Q9XUB2 whole entry): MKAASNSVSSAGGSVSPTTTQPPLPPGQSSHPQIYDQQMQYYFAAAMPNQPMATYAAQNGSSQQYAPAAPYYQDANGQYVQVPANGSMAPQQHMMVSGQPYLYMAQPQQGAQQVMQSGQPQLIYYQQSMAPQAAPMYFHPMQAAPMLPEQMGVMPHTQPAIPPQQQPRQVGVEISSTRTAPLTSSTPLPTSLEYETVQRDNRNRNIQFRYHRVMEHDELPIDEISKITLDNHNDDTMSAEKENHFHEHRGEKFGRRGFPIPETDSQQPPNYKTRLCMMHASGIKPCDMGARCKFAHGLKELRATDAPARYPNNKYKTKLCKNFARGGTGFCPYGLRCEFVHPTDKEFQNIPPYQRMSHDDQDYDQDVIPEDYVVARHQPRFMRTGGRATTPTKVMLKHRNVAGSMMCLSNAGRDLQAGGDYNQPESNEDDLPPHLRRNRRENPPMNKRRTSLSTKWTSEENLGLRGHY
Briefly: potency of MEX-5 RNA-binding blockers – biochemical, C. elegans, fluorescence polarization, dose response (AID 1960).

Test [20] can be described thus: HPDE-C7 pancreatic duct cell viability loss – fluorescence, HTS (AID 430). The test is classed as functional, cell-based. Conditions: Homo sapiens.
Test [21] is described as follows: viability loss of HPDE-C7K cells – cell-based, fluorescence, HTS, primary screen (AID 431). Type of test: functional. To be noted: Homo sapiens.
For a further test, the system named is HT-1080. The test can be described thus: HT1080 cell viability loss – fluorescence readout (AID 620). Conditions: Homo sapiens. Type of test: functional, cell-based.
The target in test [22] is Neuropeptide Y receptor type 1 (Homo sapiens, UniProt P25929). Type of test: functional.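 Further: HEK293 cells with a CNG channel challenged with NPY then isoproterenol; potency as antagonist that reverses NPY suppression of cAMP signal.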
In test [23] the target is Neuropeptide Y receptor type 2 (Homo sapiens, UniProt P49146). Type of test: functional, cell-based.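 Further: HEK293 cells expressing the receptor and a CNG channel; stimulus was NPY near EC95 followed by isoproterenol to raise cAMP; antagonist potency measured as restoring cAMP signal that NPY suppresses.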
For a further test, the target named is T5, Protein skinhead-1 (Caenorhabditis elegans, UniProt P34707).
T5 sequence (P34707 whole entry): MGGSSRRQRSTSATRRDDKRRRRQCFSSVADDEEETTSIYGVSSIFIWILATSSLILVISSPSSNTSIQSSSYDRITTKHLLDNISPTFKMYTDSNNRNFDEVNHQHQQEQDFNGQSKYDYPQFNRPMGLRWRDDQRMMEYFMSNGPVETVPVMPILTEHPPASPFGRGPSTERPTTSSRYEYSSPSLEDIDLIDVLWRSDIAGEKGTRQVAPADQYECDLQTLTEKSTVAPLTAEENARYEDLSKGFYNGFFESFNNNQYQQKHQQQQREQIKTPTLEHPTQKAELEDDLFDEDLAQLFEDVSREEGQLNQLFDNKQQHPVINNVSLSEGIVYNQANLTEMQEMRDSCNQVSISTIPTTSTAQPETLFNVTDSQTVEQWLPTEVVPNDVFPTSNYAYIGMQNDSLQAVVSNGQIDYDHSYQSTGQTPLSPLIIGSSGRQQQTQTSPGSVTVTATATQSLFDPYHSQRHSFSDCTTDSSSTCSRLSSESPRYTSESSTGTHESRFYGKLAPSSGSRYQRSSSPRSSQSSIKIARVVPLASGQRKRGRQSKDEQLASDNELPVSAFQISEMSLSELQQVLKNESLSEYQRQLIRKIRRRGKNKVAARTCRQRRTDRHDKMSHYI
The test is classed as functional.

Activity calls are given as the source filed them.

Chain of Neuropeptide Y receptor type 1 (P25929 whole entry): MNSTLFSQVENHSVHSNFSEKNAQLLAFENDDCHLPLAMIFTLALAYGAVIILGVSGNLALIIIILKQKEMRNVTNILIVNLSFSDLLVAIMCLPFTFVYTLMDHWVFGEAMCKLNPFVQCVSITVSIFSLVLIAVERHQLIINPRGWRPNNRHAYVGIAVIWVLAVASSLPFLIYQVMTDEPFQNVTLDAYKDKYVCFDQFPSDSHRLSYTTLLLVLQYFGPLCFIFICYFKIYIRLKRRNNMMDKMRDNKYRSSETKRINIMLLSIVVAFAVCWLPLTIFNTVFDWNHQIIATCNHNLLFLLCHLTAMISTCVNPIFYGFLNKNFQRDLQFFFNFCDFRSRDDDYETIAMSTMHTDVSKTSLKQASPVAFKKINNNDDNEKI
Chain of Luciferin 4-monooxygenase (P08659 whole entry): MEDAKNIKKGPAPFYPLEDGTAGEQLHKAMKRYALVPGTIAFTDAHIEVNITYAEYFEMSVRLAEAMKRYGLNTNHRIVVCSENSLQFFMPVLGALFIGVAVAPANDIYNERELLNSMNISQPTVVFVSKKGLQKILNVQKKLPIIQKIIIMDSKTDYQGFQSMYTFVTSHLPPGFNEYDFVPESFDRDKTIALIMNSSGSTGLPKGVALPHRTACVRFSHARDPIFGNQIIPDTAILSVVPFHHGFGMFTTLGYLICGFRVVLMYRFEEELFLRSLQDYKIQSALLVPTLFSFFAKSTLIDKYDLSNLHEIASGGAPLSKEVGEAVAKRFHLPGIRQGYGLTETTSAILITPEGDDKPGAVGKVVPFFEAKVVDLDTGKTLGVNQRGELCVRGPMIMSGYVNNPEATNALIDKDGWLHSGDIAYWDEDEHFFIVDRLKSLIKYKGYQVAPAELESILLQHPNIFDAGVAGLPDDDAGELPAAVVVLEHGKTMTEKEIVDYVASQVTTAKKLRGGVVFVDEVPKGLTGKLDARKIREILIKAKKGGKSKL
Chain of Cytochrome P450 2D6 (P10635 whole entry): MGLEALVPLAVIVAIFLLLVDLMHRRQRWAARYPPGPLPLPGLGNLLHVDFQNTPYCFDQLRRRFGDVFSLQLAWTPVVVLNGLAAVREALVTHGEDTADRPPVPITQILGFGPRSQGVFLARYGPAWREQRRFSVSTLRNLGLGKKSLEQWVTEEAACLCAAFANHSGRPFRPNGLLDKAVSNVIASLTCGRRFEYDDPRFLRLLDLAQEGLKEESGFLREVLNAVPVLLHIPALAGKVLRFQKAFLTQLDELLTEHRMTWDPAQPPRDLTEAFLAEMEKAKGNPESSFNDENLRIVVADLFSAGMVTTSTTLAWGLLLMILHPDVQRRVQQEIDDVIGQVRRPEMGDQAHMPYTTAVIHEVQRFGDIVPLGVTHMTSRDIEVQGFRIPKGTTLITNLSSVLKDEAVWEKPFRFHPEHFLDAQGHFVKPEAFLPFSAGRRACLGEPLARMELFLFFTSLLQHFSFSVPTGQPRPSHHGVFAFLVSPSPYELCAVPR
Chain of Sphingosine 1-phosphate receptor 1 (P21453 whole entry): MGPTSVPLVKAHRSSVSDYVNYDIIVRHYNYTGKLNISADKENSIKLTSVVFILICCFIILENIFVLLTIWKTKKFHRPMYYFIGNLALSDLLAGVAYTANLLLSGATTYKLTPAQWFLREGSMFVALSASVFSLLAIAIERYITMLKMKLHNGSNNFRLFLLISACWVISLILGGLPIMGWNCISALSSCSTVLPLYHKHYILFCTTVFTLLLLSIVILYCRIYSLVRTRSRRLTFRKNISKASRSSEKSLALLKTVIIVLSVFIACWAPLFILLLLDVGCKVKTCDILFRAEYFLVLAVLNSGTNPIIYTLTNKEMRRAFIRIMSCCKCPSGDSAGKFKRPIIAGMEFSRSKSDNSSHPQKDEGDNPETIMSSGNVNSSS
Chain of Neuropeptide Y receptor type 2 (P49146 whole entry): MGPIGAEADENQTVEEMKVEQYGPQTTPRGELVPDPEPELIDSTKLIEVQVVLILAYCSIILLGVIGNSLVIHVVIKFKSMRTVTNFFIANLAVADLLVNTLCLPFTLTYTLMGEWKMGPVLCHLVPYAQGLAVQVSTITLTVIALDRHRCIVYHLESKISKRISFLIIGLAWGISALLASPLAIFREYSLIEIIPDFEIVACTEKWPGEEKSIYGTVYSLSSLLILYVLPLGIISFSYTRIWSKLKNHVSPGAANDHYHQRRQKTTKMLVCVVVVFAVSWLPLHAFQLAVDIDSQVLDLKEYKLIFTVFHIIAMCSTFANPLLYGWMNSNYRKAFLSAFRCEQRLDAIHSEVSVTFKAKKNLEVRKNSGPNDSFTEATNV
Chain of Ion channel NompC (Q7T1G6 whole entry): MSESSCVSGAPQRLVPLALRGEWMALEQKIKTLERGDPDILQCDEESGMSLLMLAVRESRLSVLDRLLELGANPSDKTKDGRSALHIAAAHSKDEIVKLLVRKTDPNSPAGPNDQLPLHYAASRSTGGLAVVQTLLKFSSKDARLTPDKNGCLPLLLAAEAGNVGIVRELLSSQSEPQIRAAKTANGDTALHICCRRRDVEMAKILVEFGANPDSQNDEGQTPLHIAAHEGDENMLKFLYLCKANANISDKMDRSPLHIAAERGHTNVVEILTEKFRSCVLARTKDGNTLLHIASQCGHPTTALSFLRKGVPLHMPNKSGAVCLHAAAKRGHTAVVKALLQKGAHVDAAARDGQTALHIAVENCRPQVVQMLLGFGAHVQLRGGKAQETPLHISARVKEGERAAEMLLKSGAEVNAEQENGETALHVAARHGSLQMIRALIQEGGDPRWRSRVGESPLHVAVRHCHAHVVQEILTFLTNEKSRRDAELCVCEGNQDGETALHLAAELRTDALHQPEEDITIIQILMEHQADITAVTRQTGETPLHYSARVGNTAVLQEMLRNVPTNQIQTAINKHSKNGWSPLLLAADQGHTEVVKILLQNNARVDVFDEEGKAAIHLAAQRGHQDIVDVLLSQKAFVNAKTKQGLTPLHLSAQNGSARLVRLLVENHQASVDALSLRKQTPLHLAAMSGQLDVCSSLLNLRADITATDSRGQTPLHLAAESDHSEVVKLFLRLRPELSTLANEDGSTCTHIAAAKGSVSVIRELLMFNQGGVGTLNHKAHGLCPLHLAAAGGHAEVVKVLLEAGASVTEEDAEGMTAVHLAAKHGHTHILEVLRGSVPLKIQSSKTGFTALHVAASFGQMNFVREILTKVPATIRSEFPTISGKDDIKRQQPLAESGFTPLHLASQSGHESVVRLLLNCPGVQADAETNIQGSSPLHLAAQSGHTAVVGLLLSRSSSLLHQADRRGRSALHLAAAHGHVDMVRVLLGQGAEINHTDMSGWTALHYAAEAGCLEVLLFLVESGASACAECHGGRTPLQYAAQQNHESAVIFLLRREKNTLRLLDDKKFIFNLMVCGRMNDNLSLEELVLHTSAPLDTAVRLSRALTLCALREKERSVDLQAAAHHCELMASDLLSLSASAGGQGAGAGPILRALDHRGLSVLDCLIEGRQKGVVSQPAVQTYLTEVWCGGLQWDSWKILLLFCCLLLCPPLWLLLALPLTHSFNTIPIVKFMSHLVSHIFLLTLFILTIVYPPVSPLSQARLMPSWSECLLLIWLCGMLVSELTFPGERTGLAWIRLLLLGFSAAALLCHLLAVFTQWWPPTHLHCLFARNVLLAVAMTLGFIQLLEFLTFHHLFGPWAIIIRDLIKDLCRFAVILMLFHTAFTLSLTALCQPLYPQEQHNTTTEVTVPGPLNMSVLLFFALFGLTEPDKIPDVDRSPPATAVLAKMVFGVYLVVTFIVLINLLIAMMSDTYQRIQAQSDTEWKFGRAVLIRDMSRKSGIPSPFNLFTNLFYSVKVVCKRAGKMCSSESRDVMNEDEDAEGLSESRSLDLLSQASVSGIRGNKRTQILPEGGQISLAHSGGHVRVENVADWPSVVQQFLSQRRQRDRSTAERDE

On to `CC1CCc2c(sc(NC(=O)c3ccccc3C(=O)O)c2C#N)C1` (centres undefined), for which the half-inhibitory concentration (IC50) in test [1] is 24 µM (active).

`C=C1C(=O)C=C2CN(C(=O)c3ccccc3)[C@@](Cc3ccc(F)cc3)(C(=O)OC)[C@@H]12`: the 50% effective concentration (EC50) in the test with BJ [2] is 0.333 µM (active); with BJ [3] it was 8.08 µM (inconclusive); at Ion channel NompC, > 1.11 µM (inactive); on Mucolipin-3 it was 1.12 µM (active); with BJ [6], 0.554 µM (inconclusive); in [7] it was 0.662 µM (active). In addition, the EC50 in the test with BJ [10] is < 0.104 µM (active). For the same molecule, the half-maximal inhibitory concentration (IC50) in test [4] was 3.7 µM (not active); in test [5], 0.473 µM (active); in [8], 12 µM (not active); in test [9] it was > 80 µM (inactive). For the same molecule, the AC50 in the test with INS1 was 1.58 µM (active); on Cytochrome P450 2D6, 39.8 µM (inconclusive).

Turning to `CCc1ccc(C(=O)Nc2nc3ccccc3[nH]2)cc1`, in [11], the IC50 is on record as 22.1 µM (not active). Moreover, the AC50 is 31.8 µM (active) in test [12]; 29.3 µM (active) in test [13]; 1.27 µM (active) in [14]; 1.45 µM (active) in test [15]; 28.4 µM (active) in test [16].

`Cc1c(NC(=O)c2coc(=O)c(Br)c2)c(=O)n(-c2ccccc2)n1C`: the EC50 in test [17] is 8.99 µM (active); in test [18], 0.61 µM (active); in test [19], 16.8 µM (active); in [20] it was 7.2 µM (active); in [21] it was 7.23 µM (active); in the test on HT-1080 it was 15 µM (active).

With `Clc1ccc(-c2nnn(Cc3nc4ccccc4s3)n2)cc1`, the half-maximal inhibitory concentration (IC50) in test [22] is 13.4 µM (not active); in test [23] it was 15.1 µM (not active); at Protein skinhead-1, > 100 µM (inactive).

The record behind these values is ChEMBL document CHEMBL1201862, “PubChem BioAssay data set” (2004).
